Our source for the Ki and inhibition values is ChEMBL document CHEMBL2029272, “7-Azabicyclo[2.2.1]heptane as a scaffold for the development of selective sigma-2 (σ2) receptor ligands” (Bioorg Med Chem Lett, 2012).

A word on the Ki: it is the equilibrium dissociation constant of an inhibitor or competing ligand from its target. High values mean lower affinity, low ones higher affinity. Usually inhibition stands for the share of the control response that was lost under treatment.

The nature of experiment [1]: Displacement of [3H]DTG from sigma2 receptor in […]. Conditions: pc-12. Format: cell-based. For orientation: Displacement assays read how much labelled ligand stays bound in the presence of the test substance.
The target in experiment [2] is T1, Sodium-dependent dopamine transporter (Homo sapiens, UniProt Q01959). Briefly: Inhibition of DAT at 10 uM.
Experiment [3] addresses Sodium-dependent serotonin transporter (Homo sapiens, UniProt P31645). As to the kind of experiment: Inhibition of SERT.
The nature of experiment [4]: Inhibition of NMDA receptor PCP binding site at 10 uM.
Experiment [5] addresses Sodium-dependent noradrenaline transporter (Homo sapiens) (UniProt P23975). As to the kind of experiment: Inhibition of NET at 10 uM.
In the next experiment the target is D(1B) dopamine receptor (Homo sapiens, UniProt P21918). As to the kind of experiment: Inhibition of D5 dopamine receptor at 10 uM.
Experiment [6] addresses T2, Histamine H3 receptor (Homo sapiens, UniProt Q9Y5N1). As to the kind of experiment: Inhibition of H3 receptor at 10 uM.
The target in another experiment is D(2) dopamine receptor (Homo sapiens, UniProt P14416). Briefly: Inhibition of D2 dopamine receptor.
Experiment [7] concerns the target T2, Histamine H3 receptor. As to the kind of experiment: Inhibition of H3 receptor.
Experiment [8] deals with Sigma non-opioid intracellular receptor 1 (Rattus norvegicus, UniProt Q9R0C9). Briefly: Displacement of [3H](+)-pentazocine from sigma1 receptor in rat brain homogenate. The experiment is classed as tissue-based.
In experiment [9] the target is T1, Sodium-dependent dopamine transporter. As to the kind of experiment: Inhibition of DAT.
In another experiment the test system is PC-12. As to the kind of experiment: Displacement of [3H]DTG from sigma2 receptor in […] at 10 uM. The experiment is classed as cell-based.

Where only a bound is given, the exact number is not on record here.

T2 sequence (Q9Y5N1 whole entry): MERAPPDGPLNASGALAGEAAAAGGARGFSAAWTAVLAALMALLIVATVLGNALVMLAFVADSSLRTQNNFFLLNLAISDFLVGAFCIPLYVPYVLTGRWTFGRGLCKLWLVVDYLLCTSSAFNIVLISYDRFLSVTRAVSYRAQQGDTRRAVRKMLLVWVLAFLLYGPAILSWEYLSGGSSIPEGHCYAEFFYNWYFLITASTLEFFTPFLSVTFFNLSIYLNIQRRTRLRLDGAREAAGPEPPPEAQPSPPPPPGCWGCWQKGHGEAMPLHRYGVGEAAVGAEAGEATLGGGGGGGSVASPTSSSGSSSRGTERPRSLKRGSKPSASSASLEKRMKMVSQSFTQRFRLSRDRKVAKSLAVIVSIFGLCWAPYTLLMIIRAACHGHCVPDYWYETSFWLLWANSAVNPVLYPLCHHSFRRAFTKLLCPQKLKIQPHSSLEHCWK
Sequence of Sigma non-opioid intracellular receptor 1 (Q9R0C9 whole entry): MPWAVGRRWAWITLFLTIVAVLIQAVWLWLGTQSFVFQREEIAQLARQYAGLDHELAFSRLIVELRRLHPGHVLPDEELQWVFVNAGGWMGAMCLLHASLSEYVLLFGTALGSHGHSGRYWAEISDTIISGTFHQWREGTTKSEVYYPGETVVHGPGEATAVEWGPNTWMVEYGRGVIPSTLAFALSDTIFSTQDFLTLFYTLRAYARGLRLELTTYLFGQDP
Sequence of Sodium-dependent noradrenaline transporter (Homo sapiens) (P23975 whole entry): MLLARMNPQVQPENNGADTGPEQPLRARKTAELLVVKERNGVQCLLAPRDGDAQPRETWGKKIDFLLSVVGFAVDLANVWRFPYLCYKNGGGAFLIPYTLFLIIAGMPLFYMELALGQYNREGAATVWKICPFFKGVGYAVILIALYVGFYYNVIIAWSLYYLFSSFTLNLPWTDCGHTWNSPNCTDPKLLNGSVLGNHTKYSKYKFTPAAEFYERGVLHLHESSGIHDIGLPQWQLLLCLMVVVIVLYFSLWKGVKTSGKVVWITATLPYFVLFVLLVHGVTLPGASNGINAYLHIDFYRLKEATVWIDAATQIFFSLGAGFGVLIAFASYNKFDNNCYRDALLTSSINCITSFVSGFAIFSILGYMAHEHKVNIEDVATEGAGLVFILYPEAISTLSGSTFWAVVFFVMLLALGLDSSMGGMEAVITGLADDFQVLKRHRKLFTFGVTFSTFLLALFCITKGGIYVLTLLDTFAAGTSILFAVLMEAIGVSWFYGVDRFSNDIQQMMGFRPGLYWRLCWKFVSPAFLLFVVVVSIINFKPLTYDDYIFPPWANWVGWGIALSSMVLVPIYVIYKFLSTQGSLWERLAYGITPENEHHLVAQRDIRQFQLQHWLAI
T1 sequence (Q01959 whole entry): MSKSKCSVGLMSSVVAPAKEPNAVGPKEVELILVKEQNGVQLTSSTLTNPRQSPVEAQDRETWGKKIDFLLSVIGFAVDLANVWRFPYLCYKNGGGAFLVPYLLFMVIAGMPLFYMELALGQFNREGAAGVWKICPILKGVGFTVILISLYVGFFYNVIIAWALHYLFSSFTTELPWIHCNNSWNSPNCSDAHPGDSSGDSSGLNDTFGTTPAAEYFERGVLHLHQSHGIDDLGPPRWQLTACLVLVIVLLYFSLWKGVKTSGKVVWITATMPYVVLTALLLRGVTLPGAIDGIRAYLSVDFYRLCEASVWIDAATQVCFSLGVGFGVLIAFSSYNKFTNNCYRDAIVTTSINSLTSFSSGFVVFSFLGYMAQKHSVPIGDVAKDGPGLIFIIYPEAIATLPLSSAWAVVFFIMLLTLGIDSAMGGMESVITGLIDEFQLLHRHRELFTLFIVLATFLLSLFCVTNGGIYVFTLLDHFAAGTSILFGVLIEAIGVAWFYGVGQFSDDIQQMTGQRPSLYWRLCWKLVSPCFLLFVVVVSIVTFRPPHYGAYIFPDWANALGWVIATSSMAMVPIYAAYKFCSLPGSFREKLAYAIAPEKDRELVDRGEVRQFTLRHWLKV
Sequence of D(2) dopamine receptor (P14416 whole entry): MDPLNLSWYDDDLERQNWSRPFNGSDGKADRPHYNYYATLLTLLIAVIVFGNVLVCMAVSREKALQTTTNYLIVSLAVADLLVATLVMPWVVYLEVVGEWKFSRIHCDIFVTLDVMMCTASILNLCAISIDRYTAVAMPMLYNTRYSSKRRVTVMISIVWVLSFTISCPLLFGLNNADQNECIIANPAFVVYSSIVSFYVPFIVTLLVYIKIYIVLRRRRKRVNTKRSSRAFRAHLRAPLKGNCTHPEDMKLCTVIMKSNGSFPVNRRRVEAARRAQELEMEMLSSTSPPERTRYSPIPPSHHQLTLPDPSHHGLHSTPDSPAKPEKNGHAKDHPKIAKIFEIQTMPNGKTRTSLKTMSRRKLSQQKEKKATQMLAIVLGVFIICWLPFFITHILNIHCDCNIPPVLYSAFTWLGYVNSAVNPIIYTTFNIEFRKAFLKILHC
Sequence of Sodium-dependent serotonin transporter (P31645 whole entry): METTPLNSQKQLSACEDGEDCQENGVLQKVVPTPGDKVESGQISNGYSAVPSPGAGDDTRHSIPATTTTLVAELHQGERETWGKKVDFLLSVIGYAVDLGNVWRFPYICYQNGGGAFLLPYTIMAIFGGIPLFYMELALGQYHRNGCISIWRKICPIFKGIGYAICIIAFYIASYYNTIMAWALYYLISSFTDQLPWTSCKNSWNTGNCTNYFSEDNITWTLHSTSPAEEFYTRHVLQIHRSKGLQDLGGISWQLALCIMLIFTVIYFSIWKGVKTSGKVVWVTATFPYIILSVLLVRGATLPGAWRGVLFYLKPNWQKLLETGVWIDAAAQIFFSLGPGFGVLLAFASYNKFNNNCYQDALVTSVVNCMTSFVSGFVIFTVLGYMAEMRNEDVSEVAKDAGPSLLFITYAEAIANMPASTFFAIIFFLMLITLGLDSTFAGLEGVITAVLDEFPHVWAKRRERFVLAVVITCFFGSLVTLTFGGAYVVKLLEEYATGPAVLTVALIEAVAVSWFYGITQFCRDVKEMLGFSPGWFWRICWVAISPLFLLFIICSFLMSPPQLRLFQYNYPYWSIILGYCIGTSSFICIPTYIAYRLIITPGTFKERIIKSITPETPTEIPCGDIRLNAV
Sequence of D(1B) dopamine receptor (P21918 whole entry): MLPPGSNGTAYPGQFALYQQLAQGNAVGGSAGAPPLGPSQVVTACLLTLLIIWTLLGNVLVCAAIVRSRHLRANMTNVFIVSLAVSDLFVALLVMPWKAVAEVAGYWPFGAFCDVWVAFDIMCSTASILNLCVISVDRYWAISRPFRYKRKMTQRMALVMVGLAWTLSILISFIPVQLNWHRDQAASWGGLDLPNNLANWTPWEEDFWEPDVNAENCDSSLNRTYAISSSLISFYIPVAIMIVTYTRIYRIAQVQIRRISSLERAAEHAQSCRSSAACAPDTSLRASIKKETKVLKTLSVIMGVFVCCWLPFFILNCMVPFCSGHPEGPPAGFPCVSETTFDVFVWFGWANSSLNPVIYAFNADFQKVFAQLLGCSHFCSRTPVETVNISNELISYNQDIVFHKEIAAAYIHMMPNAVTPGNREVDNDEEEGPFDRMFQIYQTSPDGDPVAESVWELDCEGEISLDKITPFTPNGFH

As for `Fc1cccc(CN2CCCC2)c1`, the values for the Ki in [1] and in experiment [3] were 1610 nM and more than 10000 nM, respectively. Also, the inhibition in experiment [2], in experiment [4] and in experiment [5] was less than 50% in each case.
Turning to `c1ccc(CN2CCCC2)cc1`, the inhibition (on D(1B) dopamine receptor; in experiment [2]; in experiment [4]; in experiment [5]) was less than 50% throughout. Moreover, the inhibition constant (Ki) is 852 nM in [1] and more than 10000 nM in [3].
Turning to `COc1ccc(CN2C3CCC2CC3)cc1OC`, the Ki in experiment [1] was 43.1 nM; in experiment [3] it was more than 10000 nM; at D(2) dopamine receptor, more than 10000 nM. Also, the inhibition (in [2]; in [4]; against Histamine H3 receptor [6]; in experiment [5]) was less than 50% each time.
With `c1ccc(CCN2C3CCC2CC3)cc1`, the Ki on Histamine H3 receptor [7] was 7770 nM; in experiment [1], 131 nM; in [8] it was 276 nM; on D(2) dopamine receptor, more than 1000 nM. Moreover, the inhibition in experiment [2], in [4] and in experiment [5] was less than 50% each time.
Regarding `Fc1cccc(CN2C3CCC2CC3)c1`, the Ki in experiment [1] is 251 nM; in experiment [3] it was more than 10000 nM; at D(2) dopamine receptor it was more than 10000 nM. Besides, the inhibition (in experiment [2]; in experiment [4]; against Histamine H3 receptor [6]; in experiment [5]) was less than 50% in each case.
`Fc1cccc(CCCN2CCCC2)c1`: the Ki in experiment [9] was 3310 nM; in experiment [1] it was 39 nM; in experiment [3], 4360 nM; at D(2) dopamine receptor, 9910 nM. Further, the inhibition in experiment [4] and in experiment [5] was less than 50% in each case.
As for `c1ccc(CCN2CCCC2)nc1`, the Ki in experiment [1] was 3520 nM; in experiment [3] it was more than 10000 nM; at D(2) dopamine receptor, more than 10000 nM. For the same molecule, the inhibition in experiment [2], in experiment [4] and in [5] was less than 50% in each case.
Regarding `c1ccc(CCN2CCCC2)cc1`, the Ki was 2730 nM in experiment [9], 658 nM in experiment [1] and more than 10000 nM in experiment [3]. Moreover, the inhibition in experiment [4] and in experiment [5] was less than 50% in each case.
Consider `COc1ccc(CN2CCCC2)cc1OC`, for which the values for the Ki in experiment [1] and in [3] were 661 nM and more than 10000 nM, respectively. For the same molecule, the inhibition in experiment [2], in [4] and in experiment [5] was less than 50% each time.
`c1cncc(CN2C3CCC2CC3)c1`: the Ki in experiment [1] is 6350 nM; on D(2) dopamine receptor it was more than 10000 nM. The inhibition (in experiment [2]; in experiment [4]; against Histamine H3 receptor [6]; in [5]) was less than 50% each time.
As for `c1ccc(CCN2C3CCC2CC3)nc1`, the Ki in experiment [1] is 517 nM; in [8] it was 3830 nM; at D(2) dopamine receptor, more than 10000 nM. Moreover, the inhibition (in experiment [2]; in [4]; against Histamine H3 receptor [6]; in experiment [5]) was less than 50% in each case.
For `Fc1cccc(CCN2C3CCC2CC3)c1`, the inhibition constant (Ki) in [1] was 29.5 nM; in experiment [8], 103 nM; on D(2) dopamine receptor it was more than 10000 nM. Further, the inhibition (in experiment [2]; in experiment [4]; against Histamine H3 receptor [6]; in [5]) was less than 50% in each case.
Consider `c1cncc(CN2CCCC2)c1`, for which the inhibition (in the experiment with PC-12; in [2]; in [4]; in experiment [5]) was less than 50% throughout. This molecule also showed a Ki in experiment [3] of more than 10000 nM.
As for `c1ccc(CN2C3CCC2CC3)cc1`, the figures for the Ki (in [1]; in [3]; on D(2) dopamine receptor) were 399 nM, more than 10000 nM and more than 10000 nM, respectively. In addition, the inhibition in [2], in experiment [4] and in [5] was less than 50% in each case.
Consider `Fc1cccc(CCCN2C3CCC2CC3)c1`, for which the Ki is 11.9 nM in experiment [1], 120 nM in experiment [8] and more than 10000 nM on D(2) dopamine receptor. The inhibition (in experiment [2]; in experiment [4]; against Histamine H3 receptor [6]; in experiment [5]) was less than 50% each time.
As to `Fc1cccc(CCN2CCCC2)c1`, the Ki in [9] is 2310 nM; in [1] it was 246 nM; in experiment [3], more than 10000 nM; on D(2) dopamine receptor, more than 10000 nM. Further, the inhibition in [4] and in [5] was less than 50% throughout.
